Results taken from paper PMC10791743, “Selective CK1α degraders exert antiproliferative activity against a broad range of human cancer cell lines” (Nature Communications, 2024).
Several values for one entry are separate records, joined by “and”; a condition that tells them apart may be missing. Identical values can stand only once.

System: UCSD-AML1 cells
Assay: CTG viability, UCSD-AML1
Type: cell-based, human
Conditions: for IC50: UCSD-AML cells, replicate values
Experimental: After establishing the potency and selectivity of our lead CK1α degraders, we investigated their effect on a panel of AML and ALL cell lines (Fig. 3a).
The primary screen was performed in 384-well format using the CellTiter Glo (CTG) luminescent cell viability assay (Promega) as previously described. 3630 compounds from the St. Jude proprietary molecular glue library were screened against 9 human cancer cell lines (HD-MB03, MB004, MB002, MHH-CALL4, MOLM-13, TF-1, HEL, OCI-AML3, AML193). Each cell line was cultured in the complete medium recommended by the vendor and seeded in Corning 8804 BC white 384-well assay plates at densities of 1000, 1000, 1500, 7500, 1250, 156, 625, 1250, 1250 cells per well for HD-MB03, MB004, MB002, MHH-CALL4, MOLM-13, TF-1, HEL, OCI-AML, AML193, respectively. After overnight incubation at 37 °C in a humidified 5% CO2 incubator, cells were treated with compounds in dose–response format using a Pintool on a Biomek FX^P Laboratory Automation Workstation (Beckman Coulter). After 72 h of incubation, cell proliferation was assessed using a CellTiter-Glo (CTG) luminescent cell viability assay (Promega) according to the manufacturer’s instructions. Luminescence signal was measured using an EnVision plate reader (PerkinElmer).
HD-MB03 cell line was obtained from Drs. Milde, Witt and Deubzer[52]. HD-MB03 and MB004 cells were grown in a neurobasal medium supplemented with glutamine, streptomycin, penicillin, B27, EGF, bFGF, and heparin as previously described. MB002 and MB004 cells were obtained from Dr Yoon-Jae Cho[54]. MB002 cells were cultured in 80% neurobasal medium supplemented with glutamine, streptomycin, penicillin, B27, and 20% conditioned media from previous passages; EGF, bFGF, and heparin were also added to the medium. MHH-CALL4, NALM-16, MHH-CALL-2 cells were obtained from the German Collection of Microorganisms and Cell Cultures GmbH (DSMZ, Germany). PER-117 cells were obtained from Telethon Kids Institute (Perth, Australia). The cells were cultured in RPMI1640 medium supplemented with 10% FBS (Hyclone), Penicillin/Streptomycin (100 units/mL), and Glutamine (100 µM) except for MHH-CALL-2 cells where 20% FBS were used. MOLM-13 cells were obtained from DSMZ (ACC 554) and cultured in RPMI-1640 media (Gibco) supplemented with 20% FBS (R&D Systems) and 100 U/ml penicillin-streptomycin (Gibco). HNT-34 cells were purchased from DSMZ (ACC 600) and cultured in RPMI-1640 media supplemented with 20% FBS and 100 U/ml penicillin-streptomycin. Kasumi-3 cells were purchased from ATCC (CRL-2725) and cultured in RPMI-1640 media supplemented with 20% FBS and 100 U/ml penicillin-streptomycin. […]

| SMILES | Activity against UCSD-AML1 cells (CTG) | IC50 | IC50 (Homo sapiens) [nM] |
| --- | --- | --- | --- |
| O=C1CCC(N2Cc3cc(Nc4noc5ccccc45)ccc3C2=O)C(=O)N1 (stereo not shown) [SJ3149] | sub-nanomolar activity | 1 nM and 0.4 nM and 1.1 nM |  |
| Cc1cccc(C(=O)Nc2ccc3c(c2)CN(C2CCC(=O)NC2=O)C3=O)c1 (stereo not shown) [SJ0040] |  | 2.1 nM | 3 |
